The experiment concerns the target mGluR4 (Homo sapiens, UniProt Q14833). The experiment can be described thus: competitive binding (radioligand replacement) assay with [3H]4 in mGluR4 transfected CHO cells. More on the design: expressed in transfected cells; host or cells: CHO cells. The note with it: 2 nM [3H]4, read-out: IC50 (nM), affinity to mGluR4. The method, then: In Vitro mGluR4 Binding Assay. CHO cells expressing mGluR4 were used for all binding assay protocols. For competitive binding, 2 nM of [^3H]4 was used together with increased concentrations of test compounds ranging from 0.01 nM to 10 μM. Each test tube contained 50 000 freshly harvested CHO cells expressing mGluR4 cultured in HAMs cell culture medium with 100 nM of glutamate, penicillin-streptomycin (100 units), and 1 mM G418. [3H]4 (2 nM) was added to the cell extract with and without test compounds on ice and then incubated for 30 min at room temperature. Samples were centrifuged at 1200 rpm for 10 min at 4° C. and washed three times with a cold cell culture medium as a washing buffer. Samples were lysed by adding 100 μL of 0.5% NaOH and heated using a heating block (56° C., 30 min). Samples were cooled with an ice bath and transferred to Solvent-Saver scintillation vials (VWR International LLC.). To obtain binding parameters, the scintillation liquid (PerkinElmer, Optima Gold) was added prior to counting with a scintillation counter (Packard TriCarb Model, 1 min/vial). Nonspecific binding was determined using 10 μM of nonradioactive test compound, and specific binding was determined by extracting the nonspecific binding from total binding. All measurements were done in triplicate and analyzed with GraphPad Prism software (GraphPad Software Inc.).

mGluR4, sequence (Q14833 33-912): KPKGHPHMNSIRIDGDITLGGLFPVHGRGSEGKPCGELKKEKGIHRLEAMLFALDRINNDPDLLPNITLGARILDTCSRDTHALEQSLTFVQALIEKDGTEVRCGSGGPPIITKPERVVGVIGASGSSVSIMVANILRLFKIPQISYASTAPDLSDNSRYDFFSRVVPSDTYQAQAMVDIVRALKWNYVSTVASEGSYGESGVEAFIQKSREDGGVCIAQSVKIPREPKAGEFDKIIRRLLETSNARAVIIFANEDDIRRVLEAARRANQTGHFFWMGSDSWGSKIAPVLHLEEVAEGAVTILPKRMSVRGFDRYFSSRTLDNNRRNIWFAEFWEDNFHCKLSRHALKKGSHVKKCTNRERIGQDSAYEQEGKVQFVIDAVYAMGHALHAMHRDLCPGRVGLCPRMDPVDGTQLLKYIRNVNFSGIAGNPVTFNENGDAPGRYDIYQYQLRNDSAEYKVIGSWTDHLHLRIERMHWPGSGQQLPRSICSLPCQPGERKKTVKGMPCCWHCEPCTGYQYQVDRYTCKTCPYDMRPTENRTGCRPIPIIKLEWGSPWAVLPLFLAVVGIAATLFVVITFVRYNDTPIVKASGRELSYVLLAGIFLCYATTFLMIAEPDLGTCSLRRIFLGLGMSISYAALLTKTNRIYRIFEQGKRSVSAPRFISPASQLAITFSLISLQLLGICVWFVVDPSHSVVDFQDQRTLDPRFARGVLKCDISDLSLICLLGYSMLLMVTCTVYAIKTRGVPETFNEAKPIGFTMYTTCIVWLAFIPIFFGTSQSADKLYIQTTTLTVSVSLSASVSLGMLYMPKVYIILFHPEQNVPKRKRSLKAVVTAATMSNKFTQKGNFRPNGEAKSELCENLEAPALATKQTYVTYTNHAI

Usually IC50 stands for the concentration at which inhibition is half-maximal. Take `[2H]C([2H])(F)Sc1cc(NC(=O)c2ccccn2)ccc1Cl` [Compound 15, N-(4-Chloro-3-((fluoromethyl-d2)thio)phenyl)picolinamide]: the IC50 was 3.4 nM.

These data come from patent publication US20220118117A1, “MODULATORS OF METABOTROPIC GLUTAMATE RECEPTOR 4” (The General Hospital Corporation, priority 2019, published 2022).
